Source: ChEMBL document CHEMBL1201862, “PubChem BioAssay data set” (2004)
Active and inactive are the calls of the source.

What was measured:
Assay type in all cases: functional
[1] = target: T1, Heat shock factor protein 1 (Mus musculus, UniProt P38532); test: inhibition of MG132-induced HSE-luciferase signal, confirmation, cell-based, NIH3T3, luminescence, dose retest (AID 2382);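 note: NIH3T3 fibroblasts with HSF1-driven luciferase reporter stressed by proteasome inhibitor MG132; luminescence from HSF1-driven luciferase expression after 8 hours of MG132 stress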
T1 sequence (P38532 whole entry): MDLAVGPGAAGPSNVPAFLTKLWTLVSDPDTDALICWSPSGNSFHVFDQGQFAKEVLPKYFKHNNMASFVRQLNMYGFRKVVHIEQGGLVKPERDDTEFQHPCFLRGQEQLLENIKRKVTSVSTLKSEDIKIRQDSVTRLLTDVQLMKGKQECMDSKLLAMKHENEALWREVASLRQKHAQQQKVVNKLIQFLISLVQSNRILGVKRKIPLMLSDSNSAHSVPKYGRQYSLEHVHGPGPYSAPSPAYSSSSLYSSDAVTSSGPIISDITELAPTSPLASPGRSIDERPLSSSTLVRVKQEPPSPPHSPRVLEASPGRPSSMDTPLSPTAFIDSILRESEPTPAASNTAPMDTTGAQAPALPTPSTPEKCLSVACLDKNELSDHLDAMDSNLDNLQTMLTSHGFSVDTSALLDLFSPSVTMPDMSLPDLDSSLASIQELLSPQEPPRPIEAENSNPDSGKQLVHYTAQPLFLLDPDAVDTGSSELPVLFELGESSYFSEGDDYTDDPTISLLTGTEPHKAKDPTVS

[2] = target: T2, Microphthalmia-associated transcription factor (Homo sapiens, UniProt O75030); test: TRPM1 promoter luciferase signal decrease, dose response, MITF inhibitor project, cell-based, SK-MEL-5, cherry-picked, set 3 (AID 493073)
T2 sequence (O75030 whole entry): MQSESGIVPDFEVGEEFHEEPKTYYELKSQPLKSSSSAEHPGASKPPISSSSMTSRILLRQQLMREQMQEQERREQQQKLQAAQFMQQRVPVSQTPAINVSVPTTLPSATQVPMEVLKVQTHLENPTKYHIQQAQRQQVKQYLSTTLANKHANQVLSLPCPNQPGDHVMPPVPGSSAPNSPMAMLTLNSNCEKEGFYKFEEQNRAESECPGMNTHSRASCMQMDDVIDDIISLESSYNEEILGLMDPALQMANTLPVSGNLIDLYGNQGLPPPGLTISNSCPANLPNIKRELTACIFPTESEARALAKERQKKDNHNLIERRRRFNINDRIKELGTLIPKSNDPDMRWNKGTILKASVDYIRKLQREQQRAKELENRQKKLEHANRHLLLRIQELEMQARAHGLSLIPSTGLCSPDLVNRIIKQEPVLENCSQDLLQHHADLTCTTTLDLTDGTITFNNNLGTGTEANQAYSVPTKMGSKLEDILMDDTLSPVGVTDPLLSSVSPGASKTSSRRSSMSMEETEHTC

[3] = target: T3, High affinity choline transporter 1 (Homo sapiens, UniProt Q9GZV3); test: CHT inhibitors, dose response, cell-based, 5-point CRC, membrane potential dye (AID 504840)
T3 sequence (Q9GZV3 whole entry): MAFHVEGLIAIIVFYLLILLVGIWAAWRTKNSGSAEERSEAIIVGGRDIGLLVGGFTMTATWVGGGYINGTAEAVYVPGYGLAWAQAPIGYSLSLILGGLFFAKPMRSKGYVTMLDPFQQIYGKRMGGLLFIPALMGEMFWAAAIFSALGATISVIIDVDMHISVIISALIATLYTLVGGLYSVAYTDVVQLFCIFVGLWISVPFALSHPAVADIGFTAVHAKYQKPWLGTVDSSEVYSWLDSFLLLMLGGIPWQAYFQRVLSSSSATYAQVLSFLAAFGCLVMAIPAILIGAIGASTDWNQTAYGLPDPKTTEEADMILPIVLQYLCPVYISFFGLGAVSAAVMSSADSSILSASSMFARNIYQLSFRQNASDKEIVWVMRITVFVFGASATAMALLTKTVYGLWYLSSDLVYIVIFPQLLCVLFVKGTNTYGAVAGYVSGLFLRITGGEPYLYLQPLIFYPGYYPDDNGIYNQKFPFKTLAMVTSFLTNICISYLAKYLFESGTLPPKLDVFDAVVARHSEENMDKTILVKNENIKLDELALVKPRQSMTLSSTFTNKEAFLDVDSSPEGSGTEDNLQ

[4] = target: Dual specificity protein kinase CLK2 (Homo sapiens, UniProt P49760)
[5] = target: Tyrosine-protein kinase JAK2 (Homo sapiens, UniProt O60674);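 note: JAK2 tested as one member of a kinase panel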
[6] = target: cGMP-dependent protein kinase 1 (Homo sapiens, UniProt Q13976);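 note: value from a kinome panel screen with PRKG1 as the panel member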
[7] = target: Protein kinase C delta type (Homo sapiens, UniProt Q05655)
[8] = target: MAP kinase-activated protein kinase 2 (Homo sapiens, UniProt P49137);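 note: measured as one member of a kinome-wide kinase panel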
[9] = target: Cell division cycle 7-related protein kinase (Homo sapiens, UniProt O00311);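 note: value obtained from a kinome-wide kinase panel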
[10] = target: Hepatocyte growth factor receptor (Homo sapiens, UniProt P08581);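 note: kinase panel profiling across the kinome, with MET as the panel member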
[11] = target: Receptor-type tyrosine-protein kinase FLT3 (Homo sapiens, UniProt P36888);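 note: FLT3 was tested as one member of a kinome-wide kinase panel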
[12] = target: Receptor tyrosine-protein kinase erbB-2 (Homo sapiens, UniProt P04626); test: Navigating the Kinome. Panel member name: ERBB2
[13] = target: MAP kinase-activated protein kinase 3 (Homo sapiens, UniProt Q16644);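 note: value comes from a kinome-wide profiling panel in which MAPKAPK3 is one of the panel members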
[14] = target: Cyclin-dependent kinase 5 (Homo sapiens, UniProt Q00535);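 note: CDK5 measured as one member of a kinase profiling panel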
[15] = target: Dual specificity tyrosine-phosphorylation-regulated kinase 4 (Homo sapiens, UniProt Q9NR20)
[16] = target: Protein kinase C iota type (Homo sapiens, UniProt P41743);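 note: measured within a kinome-wide kinase panel, PRKCI as panel member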
[17] = target: Serine/threonine-protein kinase Nek2 (Homo sapiens, UniProt P51955)
[18] = target: Vascular endothelial growth factor receptor 1 (Homo sapiens, UniProt P17948);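 note: measured within a kinome-wide profiling panel, FLT1 as the panel member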
[19] = target: Fibroblast growth factor receptor 3 (Homo sapiens, UniProt P22607)
[20] = target: Serine/threonine-protein kinase PLK1 (Homo sapiens, UniProt P53350);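 note: PLK1 measured as one member of a kinome-wide profiling panel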
[21] = target: Macrophage colony-stimulating factor 1 receptor (Homo sapiens, UniProt P07333);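 note: value comes from the Navigating the Kinome screening panel, CSF1R member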
[22] = target: Serine/threonine-protein kinase BRSK1 (Homo sapiens, UniProt Q8TDC3);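 note: measured within a kinome-wide kinase panel, with the target listed as KIAA1811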
[23] = target: Glycogen synthase kinase-3 alpha (Homo sapiens, UniProt P49840);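 note: GSK3A result taken from a broad kinome-wide kinase panel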

Sequence of Macrophage colony-stimulating factor 1 receptor (P07333 whole entry): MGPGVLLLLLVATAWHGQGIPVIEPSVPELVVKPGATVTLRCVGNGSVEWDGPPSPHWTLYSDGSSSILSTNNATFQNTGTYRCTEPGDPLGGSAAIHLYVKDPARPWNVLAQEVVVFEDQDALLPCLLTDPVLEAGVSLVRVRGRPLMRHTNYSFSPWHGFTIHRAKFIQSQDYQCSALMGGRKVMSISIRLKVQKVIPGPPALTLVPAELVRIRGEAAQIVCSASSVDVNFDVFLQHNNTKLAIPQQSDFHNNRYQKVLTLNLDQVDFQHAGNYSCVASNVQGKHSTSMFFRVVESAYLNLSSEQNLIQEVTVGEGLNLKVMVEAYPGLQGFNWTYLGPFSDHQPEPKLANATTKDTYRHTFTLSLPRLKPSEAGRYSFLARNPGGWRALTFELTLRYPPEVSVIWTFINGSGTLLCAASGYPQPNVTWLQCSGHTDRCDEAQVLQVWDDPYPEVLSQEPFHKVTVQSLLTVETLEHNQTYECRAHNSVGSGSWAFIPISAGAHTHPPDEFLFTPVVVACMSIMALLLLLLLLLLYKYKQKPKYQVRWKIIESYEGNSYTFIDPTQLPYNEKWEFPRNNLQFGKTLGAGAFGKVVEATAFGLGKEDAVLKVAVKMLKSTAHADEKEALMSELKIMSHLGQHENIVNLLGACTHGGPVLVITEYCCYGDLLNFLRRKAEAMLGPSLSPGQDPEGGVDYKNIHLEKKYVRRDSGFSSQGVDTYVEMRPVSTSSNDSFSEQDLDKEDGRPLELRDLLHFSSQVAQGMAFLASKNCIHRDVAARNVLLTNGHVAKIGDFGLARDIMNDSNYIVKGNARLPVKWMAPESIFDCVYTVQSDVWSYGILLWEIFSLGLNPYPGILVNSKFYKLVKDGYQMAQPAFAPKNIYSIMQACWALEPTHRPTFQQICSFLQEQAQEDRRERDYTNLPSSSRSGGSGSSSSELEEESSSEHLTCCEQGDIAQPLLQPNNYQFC
Sequence of Serine/threonine-protein kinase Nek2 (P51955 whole entry): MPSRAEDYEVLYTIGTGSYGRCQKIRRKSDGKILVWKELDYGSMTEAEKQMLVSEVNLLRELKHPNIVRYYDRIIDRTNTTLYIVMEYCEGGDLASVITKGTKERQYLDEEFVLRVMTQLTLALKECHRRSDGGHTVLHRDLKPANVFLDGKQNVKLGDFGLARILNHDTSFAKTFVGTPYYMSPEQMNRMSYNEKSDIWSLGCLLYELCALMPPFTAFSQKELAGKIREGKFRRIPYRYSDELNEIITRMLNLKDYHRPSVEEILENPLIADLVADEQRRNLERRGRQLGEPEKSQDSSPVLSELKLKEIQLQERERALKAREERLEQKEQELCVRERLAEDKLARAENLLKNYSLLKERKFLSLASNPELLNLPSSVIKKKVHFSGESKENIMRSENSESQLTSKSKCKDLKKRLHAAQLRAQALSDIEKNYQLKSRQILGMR
Sequence of MAP kinase-activated protein kinase 2 (P49137 whole entry): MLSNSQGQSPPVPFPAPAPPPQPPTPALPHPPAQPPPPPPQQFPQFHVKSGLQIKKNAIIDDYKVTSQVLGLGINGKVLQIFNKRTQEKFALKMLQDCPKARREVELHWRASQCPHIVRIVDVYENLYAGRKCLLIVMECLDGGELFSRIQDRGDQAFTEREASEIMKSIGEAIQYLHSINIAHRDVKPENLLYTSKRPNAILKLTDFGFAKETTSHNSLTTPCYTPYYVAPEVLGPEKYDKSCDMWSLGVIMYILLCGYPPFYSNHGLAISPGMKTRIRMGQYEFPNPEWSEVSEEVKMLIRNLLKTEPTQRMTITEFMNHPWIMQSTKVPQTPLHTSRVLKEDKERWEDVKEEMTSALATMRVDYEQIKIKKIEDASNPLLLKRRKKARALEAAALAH
Sequence of Serine/threonine-protein kinase BRSK1 (Q8TDC3 whole entry): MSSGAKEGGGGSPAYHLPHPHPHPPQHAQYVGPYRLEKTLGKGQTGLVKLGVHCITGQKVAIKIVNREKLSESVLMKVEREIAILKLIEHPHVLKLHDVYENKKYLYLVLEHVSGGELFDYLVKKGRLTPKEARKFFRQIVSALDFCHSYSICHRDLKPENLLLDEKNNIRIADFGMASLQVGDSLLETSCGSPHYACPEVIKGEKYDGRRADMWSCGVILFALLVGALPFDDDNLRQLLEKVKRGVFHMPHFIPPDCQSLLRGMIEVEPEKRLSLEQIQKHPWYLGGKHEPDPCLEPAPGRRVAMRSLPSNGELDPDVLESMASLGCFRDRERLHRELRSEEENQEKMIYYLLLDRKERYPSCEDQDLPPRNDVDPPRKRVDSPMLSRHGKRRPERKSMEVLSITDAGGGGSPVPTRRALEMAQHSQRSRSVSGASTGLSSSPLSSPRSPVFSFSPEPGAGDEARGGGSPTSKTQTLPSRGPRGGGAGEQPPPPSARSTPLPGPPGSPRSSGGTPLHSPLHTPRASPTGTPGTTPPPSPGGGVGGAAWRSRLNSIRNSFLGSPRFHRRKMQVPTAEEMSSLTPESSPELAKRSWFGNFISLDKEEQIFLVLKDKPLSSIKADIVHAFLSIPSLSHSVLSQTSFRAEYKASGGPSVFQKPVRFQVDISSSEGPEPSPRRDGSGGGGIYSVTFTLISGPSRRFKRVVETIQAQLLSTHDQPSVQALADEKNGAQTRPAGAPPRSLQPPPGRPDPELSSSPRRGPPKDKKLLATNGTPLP
Sequence of Cyclin-dependent kinase 5 (Q00535 whole entry): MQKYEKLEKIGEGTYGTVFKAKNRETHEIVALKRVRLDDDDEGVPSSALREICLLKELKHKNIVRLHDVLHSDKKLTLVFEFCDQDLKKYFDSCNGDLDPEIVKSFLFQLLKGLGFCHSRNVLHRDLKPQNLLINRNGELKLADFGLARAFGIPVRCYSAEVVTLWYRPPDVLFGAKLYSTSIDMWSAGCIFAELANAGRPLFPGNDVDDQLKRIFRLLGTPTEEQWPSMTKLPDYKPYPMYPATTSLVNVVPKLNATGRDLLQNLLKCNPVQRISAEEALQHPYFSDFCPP
Sequence of cGMP-dependent protein kinase 1 (Q13976 whole entry): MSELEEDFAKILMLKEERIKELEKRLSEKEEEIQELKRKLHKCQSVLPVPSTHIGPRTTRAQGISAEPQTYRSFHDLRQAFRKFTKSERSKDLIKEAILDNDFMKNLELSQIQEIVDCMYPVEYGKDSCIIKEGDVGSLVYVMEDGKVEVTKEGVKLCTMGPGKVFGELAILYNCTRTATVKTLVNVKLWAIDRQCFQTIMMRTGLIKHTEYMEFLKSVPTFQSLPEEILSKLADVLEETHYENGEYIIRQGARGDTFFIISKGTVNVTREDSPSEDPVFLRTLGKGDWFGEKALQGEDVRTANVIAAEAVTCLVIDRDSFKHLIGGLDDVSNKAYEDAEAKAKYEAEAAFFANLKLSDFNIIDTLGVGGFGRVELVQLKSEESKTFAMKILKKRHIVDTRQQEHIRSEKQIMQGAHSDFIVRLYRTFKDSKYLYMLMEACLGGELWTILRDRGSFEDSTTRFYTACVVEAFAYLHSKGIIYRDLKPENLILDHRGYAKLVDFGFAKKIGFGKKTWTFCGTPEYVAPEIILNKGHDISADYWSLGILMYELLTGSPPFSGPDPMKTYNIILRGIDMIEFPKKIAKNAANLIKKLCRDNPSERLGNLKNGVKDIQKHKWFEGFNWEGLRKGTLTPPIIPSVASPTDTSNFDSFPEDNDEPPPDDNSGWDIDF
Sequence of Cell division cycle 7-related protein kinase (O00311 whole entry): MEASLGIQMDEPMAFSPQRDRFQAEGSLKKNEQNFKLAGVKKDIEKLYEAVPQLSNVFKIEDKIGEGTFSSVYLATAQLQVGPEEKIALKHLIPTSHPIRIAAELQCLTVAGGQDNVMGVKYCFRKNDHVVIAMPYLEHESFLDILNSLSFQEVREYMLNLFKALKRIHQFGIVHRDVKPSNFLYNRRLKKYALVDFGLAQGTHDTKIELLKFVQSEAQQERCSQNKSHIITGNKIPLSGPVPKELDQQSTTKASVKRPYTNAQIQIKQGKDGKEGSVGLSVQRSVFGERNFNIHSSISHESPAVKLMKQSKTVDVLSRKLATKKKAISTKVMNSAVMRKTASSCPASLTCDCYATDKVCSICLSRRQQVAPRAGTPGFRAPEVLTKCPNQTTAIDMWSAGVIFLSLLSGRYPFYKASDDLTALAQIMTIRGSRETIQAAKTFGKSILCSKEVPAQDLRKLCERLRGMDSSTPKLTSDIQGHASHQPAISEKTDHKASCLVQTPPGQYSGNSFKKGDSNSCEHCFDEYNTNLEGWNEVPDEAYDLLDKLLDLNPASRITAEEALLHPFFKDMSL
Sequence of Dual specificity protein kinase CLK2 (P49760 whole entry): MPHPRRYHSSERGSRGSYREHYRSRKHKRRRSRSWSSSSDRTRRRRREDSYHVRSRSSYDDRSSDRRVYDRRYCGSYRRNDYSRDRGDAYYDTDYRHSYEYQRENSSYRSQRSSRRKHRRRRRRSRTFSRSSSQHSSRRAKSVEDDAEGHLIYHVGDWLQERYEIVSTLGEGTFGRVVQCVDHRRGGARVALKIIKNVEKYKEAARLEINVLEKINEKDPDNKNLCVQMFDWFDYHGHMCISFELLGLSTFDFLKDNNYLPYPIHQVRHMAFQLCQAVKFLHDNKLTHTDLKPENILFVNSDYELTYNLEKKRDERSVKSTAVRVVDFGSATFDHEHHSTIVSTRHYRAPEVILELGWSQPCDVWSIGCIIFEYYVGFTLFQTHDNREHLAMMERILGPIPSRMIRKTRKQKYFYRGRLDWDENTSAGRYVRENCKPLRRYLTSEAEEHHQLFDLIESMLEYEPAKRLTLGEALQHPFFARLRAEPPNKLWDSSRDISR
Sequence of MAP kinase-activated protein kinase 3 (Q16644 whole entry): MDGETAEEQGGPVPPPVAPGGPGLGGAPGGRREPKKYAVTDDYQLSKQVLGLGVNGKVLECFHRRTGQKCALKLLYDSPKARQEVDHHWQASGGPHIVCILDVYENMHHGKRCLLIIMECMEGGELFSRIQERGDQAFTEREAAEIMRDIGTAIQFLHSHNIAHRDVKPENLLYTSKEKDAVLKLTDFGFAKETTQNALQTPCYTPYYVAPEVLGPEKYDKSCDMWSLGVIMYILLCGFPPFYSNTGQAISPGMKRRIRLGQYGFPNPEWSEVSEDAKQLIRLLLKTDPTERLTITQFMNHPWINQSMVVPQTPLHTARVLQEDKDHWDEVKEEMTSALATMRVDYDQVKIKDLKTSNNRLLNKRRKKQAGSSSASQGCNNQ

| Ki [10] | Ki [14] | Ki [20] | Ki [21] | Structure (SMILES) | EC50 [1] | AC50 [2] | Ki [4] | Ki [5] | Ki [6] | Ki [7] | Ki [8] | Ki [9] | Ki [11] | Ki [12] | Ki [13] | Ki [15] | Ki [16] | Ki [17] | Ki [18] | Ki [19] | other results |
| --- | --- | --- | --- | --- | --- | --- | --- | --- | --- | --- | --- | --- | --- | --- | --- | --- | --- | --- | --- | --- | --- |
|  |  |  |  | COC(=O)CCS(=O)(=O)c1nc(-c2ccccc2)cc(C(F)(F)F)n1 | 9.59 µM (inconclusive) | 5.85 µM (active) |  |  |  |  |  |  |  |  |  |  |  |  |  |  |  |
|  |  |  |  | O=C(O)c1ccc(NC2=C(Cl)C(=O)c3ccccc3C2=O)cc1 | 6.24 µM (active) |  |  |  |  |  |  |  |  |  |  |  |  |  |  |  | IC50 [3]: 14.5 µM (active) |
| > 3.16 µM (inactive) | 0.316 µM (active) | > 7.94 µM (inactive) | > 2.51 µM (inactive) | Cc1ccc2nccc(NC(=O)Nc3cccc(C(F)(F)F)n3)c2c1 |  |  | > 2 µM (inactive) | > 2 µM (inactive) | > 2 µM (inactive) | > 7.94 µM (inactive) | > 7.94 µM (inactive) | > 1.26 µM (inactive) | 0.251 µM (active) | > 1.58 µM (inactive) | > 10 µM (inactive) | > 7.94 µM (inactive) | > 5.01 µM (inactive) | > 10 µM (inactive) | > 2 µM (inactive) | > 2 µM (inactive) | Ki [22]: > 10 µM (inactive) |
| > 31.6 µM (inactive) | 79.4 µM (active) | > 79.4 µM (inactive) | > 63.1 µM (inactive) | Cc1nn(C)c2sc3c(=O)[nH]cnc3c12 |  |  |  |  |  |  |  |  |  |  |  |  |  |  |  |  | Ki [23]: 50.1 µM (active) |
|  |  |  |  | Cc1c(/N=C2\C=CC(=O)c3ccccc32)c(=O)n(-c2ccccc2)n1C |  | 5.26 µM (active) |  |  |  |  |  |  |  |  |  |  |  |  |  |  |  |
|  |  |  |  | COc1cc2c(cc1F)C(c1ccccc1Cl)=Nc1c(n[nH]c1C)N2 [RG-1530] |  |  | 2.51 µM (active) | 0.126 µM (active) | > 2 µM (inactive) | 3.16 µM (active) | > 7.94 µM (inactive) | > 1.26 µM (inactive) | 0.0794 µM (active) | > 1.58 µM (inactive) | > 10 µM (inactive) | > 7.94 µM (inactive) | > 5.01 µM (inactive) | > 6.31 µM (inactive) | 0.0501 µM (active) | 0.0251 µM (active) | Ki [23]: 0.0501 µM (active); Ki [22]: 1.26 µM (active) |
